In publication PMC9097471, “Development of Selective Phosphatidylinositol 5-Phosphate 4-Kinase γ Inhibitors with a Non-ATP-competitive, Allosteric Binding Mode” (Journal of Medicinal Chemistry, 2022) one finds remaining activity, ΔTm and IC50 data, which are given here for two compounds.

In one experiment the target is ULK1 (Homo sapiens, UniProt O75385). Briefly: Kinase panel, radiometric 33P filter binding. As to conditions: read-out: % activity remaining.
A further experiment has as its target TIE2 (Homo sapiens, UniProt Q02763). Briefly: Kinase panel, radiometric 33P filter binding. As to conditions: read-out: % activity remaining.
Another experiment has as its target Src (Homo sapiens, UniProt P12931). Briefly: Kinase panel, radiometric 33P filter binding. The note with it: read-out: % activity remaining.
The target in the next experiment is NEK6 (Homo sapiens, UniProt Q9HC98). Briefly: Kinase panel, radiometric 33P filter binding. As to conditions: read-out: % activity remaining.
Another experiment addresses IR (Homo sapiens, UniProt P06213). Briefly: Kinase panel, radiometric 33P filter binding. As to conditions: read-out: % activity remaining.
The next experiment deals with JAK3 (Homo sapiens, UniProt P52333). Briefly: Kinase panel, radiometric 33P filter binding. The note with it: read-out: % activity remaining.
For a further experiment, the target named is MAPKAP-K2 (Homo sapiens, UniProt P49137). Briefly: Kinase panel, radiometric 33P filter binding. As to conditions: read-out: % activity remaining.
The target of the next experiment is MARK1 (Homo sapiens, UniProt Q9P0L2). Briefly: Kinase panel, radiometric 33P filter binding. As to conditions: read-out: % activity remaining.
The next experiment has as its target TTBK2 (Homo sapiens, UniProt Q6IQ55). Briefly: Kinase panel, radiometric 33P filter binding. The note with it: read-out: % activity remaining.
In a further experiment the target is MINK1 (Homo sapiens, UniProt Q8N4C8). Briefly: Kinase panel, radiometric 33P filter binding. The note with it: read-out: % activity remaining.
Another experiment concerns the target PRAK (Homo sapiens, UniProt Q8IW41). Briefly: Kinase panel, radiometric 33P filter binding. As to conditions: read-out: % activity remaining.
Another experiment concerns the target TAK1 (Homo sapiens, UniProt O43318). Briefly: Kinase panel, radiometric 33P filter binding. The note with it: read-out: % activity remaining.
In a further experiment the target is PDGFRA (Homo sapiens, UniProt P16234). Briefly: Kinase panel, radiometric 33P filter binding. As to conditions: read-out: % activity remaining.
For the next experiment, the target named is TrkA (Homo sapiens, UniProt P04629). Briefly: Kinase panel, radiometric 33P filter binding. As to conditions: read-out: % activity remaining.
A further experiment deals with PKA (Homo sapiens, UniProt P17612). Briefly: Kinase panel, radiometric 33P filter binding. The note with it: read-out: % activity remaining.
Another experiment concerns the target OSR1 (Homo sapiens, UniProt O95747). Briefly: Kinase panel, radiometric 33P filter binding. The note with it: read-out: % activity remaining.
For the next experiment, the target named is MEKK1 (Homo sapiens, UniProt Q13233). Briefly: Kinase panel, radiometric 33P filter binding. As to conditions: read-out: % activity remaining.
The target in another experiment is JNK2 (Homo sapiens, UniProt P45984). Briefly: Kinase panel, radiometric 33P filter binding. As to conditions: read-out: % activity remaining.
The target in a further experiment is TAO1 (Homo sapiens, UniProt Q7L7X3). Briefly: Kinase panel, radiometric 33P filter binding. The note with it: read-out: % activity remaining.
The target in the next experiment is PAK4 (Homo sapiens, UniProt O96013). Briefly: Kinase panel, radiometric 33P filter binding. As to conditions: read-out: % activity remaining.
The next experiment concerns the target PAK5 (Homo sapiens, UniProt Q9P286). Briefly: Kinase panel, radiometric 33P filter binding. As to conditions: read-out: % activity remaining.
A further experiment has as its target IKKb (Homo sapiens, UniProt O14920). Briefly: Kinase panel, radiometric 33P filter binding. The note with it: read-out: % activity remaining.
For a further experiment, the target named is NEK2a (Homo sapiens, UniProt P51955). Briefly: Kinase panel, radiometric 33P filter binding. The note with it: read-out: % activity remaining.
The target in the next experiment is MKK6 (Homo sapiens, UniProt P52564). Briefly: Kinase panel, radiometric 33P filter binding. As to conditions: read-out: % activity remaining.
The target in the next experiment is p38g MAPK (Homo sapiens, UniProt P53778). Briefly: Kinase panel, radiometric 33P filter binding. The note with it: read-out: % activity remaining.
A further experiment addresses p38d MAPK (Homo sapiens, UniProt O15264). Briefly: Kinase panel, radiometric 33P filter binding. As to conditions: read-out: % activity remaining.
A further experiment has as its target VEG-FR (Homo sapiens, UniProt P17948). Briefly: Kinase panel, radiometric 33P filter binding. The note with it: read-out: % activity remaining.
The target in a further experiment is TGFBR1 (Homo sapiens, UniProt P36897). Briefly: Kinase panel, radiometric 33P filter binding. The note with it: read-out: % activity remaining.
The next experiment addresses SRPK1 (Homo sapiens, UniProt Q96SB4). Briefly: Kinase panel, radiometric 33P filter binding. The note with it: read-out: % activity remaining.
The target of a further experiment is MST3 (Homo sapiens, UniProt Q9Y6E0). Briefly: Kinase panel, radiometric 33P filter binding. The note with it: read-out: % activity remaining.
For a further experiment, the target named is PLK1 (Homo sapiens, UniProt P53350). Briefly: Kinase panel, radiometric 33P filter binding. The note with it: read-out: % activity remaining.
In another experiment the target is MKK2 (Homo sapiens, UniProt P36507). Briefly: Kinase panel, radiometric 33P filter binding. The note with it: read-out: % activity remaining.
A further experiment addresses TBK1 (Homo sapiens, UniProt Q9UHD2). Briefly: Kinase panel, radiometric 33P filter binding. As to conditions: read-out: % activity remaining.
For the next experiment, the target named is RSK1 (Homo sapiens, UniProt Q15418). Briefly: Kinase panel, radiometric 33P filter binding. The note with it: read-out: % activity remaining.
Another experiment deals with PI5P4Kγ+ (Homo sapiens, UniProt Q8TBX8, D138G/D197E/E133P/E135D/E153T/E196G/G136S/G139A/N195G/S132L/S134N). Briefly: Thermal shift assay. The note with it: read-out: ΔTm PI5P4Kγ+.
The subject of another experiment is PI5P4Kα. Also on record: method as in ref 30 (a number printed in a supplementary file, which may have a reference list of its own: not looked up in the article's list). The note with it: 32P-ATP/PI5P incorporation; cited from earlier work.

Chain of VEG-FR (P17948 27-1338): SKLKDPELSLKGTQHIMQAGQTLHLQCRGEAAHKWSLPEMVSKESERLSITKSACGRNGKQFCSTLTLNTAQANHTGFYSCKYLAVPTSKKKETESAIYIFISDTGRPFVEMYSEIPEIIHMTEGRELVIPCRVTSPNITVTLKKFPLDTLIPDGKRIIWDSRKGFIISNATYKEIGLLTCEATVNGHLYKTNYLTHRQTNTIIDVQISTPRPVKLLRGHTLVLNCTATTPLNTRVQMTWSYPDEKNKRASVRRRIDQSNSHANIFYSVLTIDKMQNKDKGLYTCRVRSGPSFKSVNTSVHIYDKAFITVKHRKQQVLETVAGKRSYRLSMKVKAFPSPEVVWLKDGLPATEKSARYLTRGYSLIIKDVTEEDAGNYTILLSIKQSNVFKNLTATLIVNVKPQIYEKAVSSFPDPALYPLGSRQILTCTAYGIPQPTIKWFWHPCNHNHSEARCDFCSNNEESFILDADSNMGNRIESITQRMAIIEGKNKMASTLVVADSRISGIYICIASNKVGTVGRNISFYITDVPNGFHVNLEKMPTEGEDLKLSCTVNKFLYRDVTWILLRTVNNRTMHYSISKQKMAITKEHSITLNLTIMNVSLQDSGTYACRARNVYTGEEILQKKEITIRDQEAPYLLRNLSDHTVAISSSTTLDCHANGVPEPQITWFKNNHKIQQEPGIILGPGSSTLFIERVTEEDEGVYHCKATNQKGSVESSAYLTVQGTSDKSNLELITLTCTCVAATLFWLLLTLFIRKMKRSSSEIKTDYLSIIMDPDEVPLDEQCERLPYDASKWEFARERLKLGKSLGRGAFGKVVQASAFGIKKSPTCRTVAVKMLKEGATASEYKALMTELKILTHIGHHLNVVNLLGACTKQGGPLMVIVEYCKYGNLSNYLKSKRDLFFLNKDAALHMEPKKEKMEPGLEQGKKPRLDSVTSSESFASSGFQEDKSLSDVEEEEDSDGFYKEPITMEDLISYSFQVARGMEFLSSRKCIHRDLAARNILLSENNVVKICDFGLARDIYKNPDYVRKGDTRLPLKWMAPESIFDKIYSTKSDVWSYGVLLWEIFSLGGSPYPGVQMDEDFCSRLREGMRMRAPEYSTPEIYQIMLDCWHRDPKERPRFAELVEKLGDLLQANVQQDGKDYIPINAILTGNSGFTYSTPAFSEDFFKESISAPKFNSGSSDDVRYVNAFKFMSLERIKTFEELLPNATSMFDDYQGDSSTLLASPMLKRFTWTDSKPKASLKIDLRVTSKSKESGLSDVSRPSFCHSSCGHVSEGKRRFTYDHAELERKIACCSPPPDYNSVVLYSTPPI
Chain of TAO1 (Q7L7X3 whole entry): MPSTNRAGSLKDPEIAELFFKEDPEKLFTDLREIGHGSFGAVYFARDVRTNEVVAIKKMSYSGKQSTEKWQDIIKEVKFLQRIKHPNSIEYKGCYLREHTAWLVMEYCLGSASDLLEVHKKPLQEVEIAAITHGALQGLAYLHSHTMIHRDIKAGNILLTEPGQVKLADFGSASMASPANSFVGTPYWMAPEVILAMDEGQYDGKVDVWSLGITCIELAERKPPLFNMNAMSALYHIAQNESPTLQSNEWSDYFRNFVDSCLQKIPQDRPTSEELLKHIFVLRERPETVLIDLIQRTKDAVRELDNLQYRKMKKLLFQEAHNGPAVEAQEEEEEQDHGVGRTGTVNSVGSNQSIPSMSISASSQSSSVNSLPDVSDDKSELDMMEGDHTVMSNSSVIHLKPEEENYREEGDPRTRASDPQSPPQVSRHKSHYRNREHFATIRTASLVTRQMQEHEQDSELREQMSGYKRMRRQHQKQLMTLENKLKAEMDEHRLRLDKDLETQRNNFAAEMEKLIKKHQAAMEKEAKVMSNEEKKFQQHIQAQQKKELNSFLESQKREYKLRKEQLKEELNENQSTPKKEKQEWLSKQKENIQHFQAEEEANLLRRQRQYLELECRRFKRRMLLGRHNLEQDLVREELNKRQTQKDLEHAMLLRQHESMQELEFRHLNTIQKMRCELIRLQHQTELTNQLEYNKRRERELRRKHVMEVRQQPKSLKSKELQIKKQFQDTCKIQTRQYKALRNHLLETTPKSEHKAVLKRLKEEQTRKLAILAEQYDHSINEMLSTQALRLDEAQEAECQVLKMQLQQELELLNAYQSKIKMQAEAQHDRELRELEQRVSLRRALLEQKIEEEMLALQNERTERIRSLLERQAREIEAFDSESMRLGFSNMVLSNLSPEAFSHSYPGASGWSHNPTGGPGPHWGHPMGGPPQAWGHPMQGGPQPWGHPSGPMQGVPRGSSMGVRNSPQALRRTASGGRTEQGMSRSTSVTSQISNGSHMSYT
Chain of PLK1 (P53350 whole entry): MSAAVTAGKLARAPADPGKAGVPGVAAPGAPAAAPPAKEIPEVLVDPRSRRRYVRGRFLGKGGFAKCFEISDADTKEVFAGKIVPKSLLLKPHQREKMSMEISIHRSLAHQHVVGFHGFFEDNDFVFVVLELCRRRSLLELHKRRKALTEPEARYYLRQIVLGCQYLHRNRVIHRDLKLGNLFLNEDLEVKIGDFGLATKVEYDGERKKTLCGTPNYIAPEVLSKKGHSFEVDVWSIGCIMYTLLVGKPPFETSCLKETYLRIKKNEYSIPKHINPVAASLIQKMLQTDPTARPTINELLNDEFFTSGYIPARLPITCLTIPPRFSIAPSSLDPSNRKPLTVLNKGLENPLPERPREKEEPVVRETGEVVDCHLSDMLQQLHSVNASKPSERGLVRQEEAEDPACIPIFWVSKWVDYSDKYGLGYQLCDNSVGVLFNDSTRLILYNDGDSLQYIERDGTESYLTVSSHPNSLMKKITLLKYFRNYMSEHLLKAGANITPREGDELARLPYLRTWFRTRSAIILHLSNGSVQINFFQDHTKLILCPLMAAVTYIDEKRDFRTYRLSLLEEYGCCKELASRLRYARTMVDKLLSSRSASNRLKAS
Chain of JNK2 (P45984 whole entry): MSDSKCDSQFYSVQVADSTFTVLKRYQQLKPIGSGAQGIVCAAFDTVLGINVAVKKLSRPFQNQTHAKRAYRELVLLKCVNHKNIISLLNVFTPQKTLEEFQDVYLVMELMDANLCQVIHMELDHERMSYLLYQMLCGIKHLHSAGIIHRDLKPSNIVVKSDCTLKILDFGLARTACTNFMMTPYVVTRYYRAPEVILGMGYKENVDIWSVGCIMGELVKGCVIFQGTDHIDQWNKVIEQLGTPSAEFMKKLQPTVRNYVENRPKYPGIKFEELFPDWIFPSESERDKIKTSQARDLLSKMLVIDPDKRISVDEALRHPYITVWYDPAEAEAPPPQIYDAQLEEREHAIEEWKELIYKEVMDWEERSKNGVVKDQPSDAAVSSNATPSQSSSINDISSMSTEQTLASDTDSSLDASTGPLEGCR
Chain of TIE2 (Q02763 23-1124): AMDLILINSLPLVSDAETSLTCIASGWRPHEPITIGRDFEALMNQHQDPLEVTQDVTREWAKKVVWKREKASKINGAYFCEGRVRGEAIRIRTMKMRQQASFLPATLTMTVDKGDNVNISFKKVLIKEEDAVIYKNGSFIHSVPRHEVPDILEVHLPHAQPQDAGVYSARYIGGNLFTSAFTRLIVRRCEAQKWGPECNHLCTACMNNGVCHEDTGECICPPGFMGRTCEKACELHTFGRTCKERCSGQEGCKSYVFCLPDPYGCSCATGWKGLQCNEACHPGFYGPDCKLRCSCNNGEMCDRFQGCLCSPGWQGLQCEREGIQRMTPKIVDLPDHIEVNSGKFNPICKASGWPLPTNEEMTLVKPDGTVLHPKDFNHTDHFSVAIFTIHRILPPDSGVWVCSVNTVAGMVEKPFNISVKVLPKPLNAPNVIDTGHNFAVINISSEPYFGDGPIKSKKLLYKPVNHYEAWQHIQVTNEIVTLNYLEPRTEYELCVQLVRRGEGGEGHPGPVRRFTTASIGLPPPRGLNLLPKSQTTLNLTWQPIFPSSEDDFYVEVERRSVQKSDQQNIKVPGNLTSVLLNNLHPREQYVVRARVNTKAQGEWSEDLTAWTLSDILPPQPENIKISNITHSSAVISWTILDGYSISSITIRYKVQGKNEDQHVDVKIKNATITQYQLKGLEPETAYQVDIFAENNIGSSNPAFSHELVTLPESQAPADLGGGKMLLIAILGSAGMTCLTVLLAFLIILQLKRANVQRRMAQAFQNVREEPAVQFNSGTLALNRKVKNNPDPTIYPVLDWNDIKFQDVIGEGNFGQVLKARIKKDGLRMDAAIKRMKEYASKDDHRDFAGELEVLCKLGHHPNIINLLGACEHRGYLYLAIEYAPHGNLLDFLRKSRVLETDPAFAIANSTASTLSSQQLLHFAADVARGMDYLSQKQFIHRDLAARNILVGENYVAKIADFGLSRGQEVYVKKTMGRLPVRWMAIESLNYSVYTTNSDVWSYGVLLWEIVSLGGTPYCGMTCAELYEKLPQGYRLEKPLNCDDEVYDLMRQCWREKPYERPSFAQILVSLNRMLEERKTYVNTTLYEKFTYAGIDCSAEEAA
Chain of MKK2 (P36507 whole entry): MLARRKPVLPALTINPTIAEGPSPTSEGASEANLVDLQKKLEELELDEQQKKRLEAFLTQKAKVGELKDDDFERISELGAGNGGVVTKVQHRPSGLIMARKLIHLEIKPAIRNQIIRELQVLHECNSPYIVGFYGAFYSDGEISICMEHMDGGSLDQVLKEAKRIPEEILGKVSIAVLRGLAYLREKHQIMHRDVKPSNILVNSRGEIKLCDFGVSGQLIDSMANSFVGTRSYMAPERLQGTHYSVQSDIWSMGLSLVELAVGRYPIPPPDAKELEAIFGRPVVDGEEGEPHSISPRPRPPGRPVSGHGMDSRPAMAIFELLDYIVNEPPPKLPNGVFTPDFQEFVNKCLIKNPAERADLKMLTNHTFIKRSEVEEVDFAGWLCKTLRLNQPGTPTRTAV
Text for IKKb: (§1) filter binding assay using 33P-g-ATPat the MRC PPU International Centre for Kinase Profiling, University of
Kinase % activity remaining s.d.
Text for IR: as §1
Text for JNK2: as §1
Text for MARK1: as §1
Text for MEKK1: as §1
Text for MINK1: as §1
Text for NEK2a: as §1
Text for NEK6: as §1
Kinase % activity remaining s.d.
Text for PAK4: as §1
Text for PDGFRA: as §1
Kinase % activity remaining s.d.
Text for PLK1: as §1
Text for PRAK: as §1
Text for RSK1: as §1
Text for SRPK1: as §1
Text for TAO1: as §1
Text for TBK1: as §1
Kinase % activity remaining s.d.
Text for TTBK2: as §1
Text for TrkA: as §1
Text for ULK1: as §1
Text for VEG-FR: as §1
Text for p38d MAPK: as §1
Text for p38g MAPK: as §1

For the compound `CC(C)c1ccccc1-c1nc(NCc2ccccn2)c2c(ccn2C)n1` [Compound 40], the remaining activity at 10 µM is 111% at ULK1; 89% on TIE2; 135% on Src; 120% on NEK6; 119% at IR; 97% at JAK3. Further, the remaining activity at 10 µM turned out to be 123% at MAPKAP-K2; 88% at MARK1; 114% at TTBK2; 95% at MINK1; 98% on PRAK; 110% at TAK1. The remaining activity at 10 µM on PDGFRA worked out at 100%; at TrkA it was 100%; on PKA it was 109%; on OSR1 it was 120%; on MEKK1 it was 68%; at JNK2, 110%. For the same compound, the remaining activity at 10 µM on TAO1 turned out to be 115%; at PAK4 it was 95%; on PAK5 it was 120%; on IKKb, 100%; at NEK2a it was 103%; on MKK6 it was 90%. For the same compound, the remaining activity at 10 µM was 105% at p38g MAPK; 117% on p38d MAPK; 125% on VEG-FR; 91% on TGFBR1; 93% at SRPK1; 110% at MST3. Further, the remaining activity at 10 µM stood at 97% on PLK1, 115% at MKK2, 93% at TBK1 and 99% at RSK1.

With `FC(F)(F)c1ccccc1-c1nc(NCc2cccs2)c2ccccc2n1` [Compound 1, NIH-12848, reference compound], the ΔTm at 63 µM at PI5P4Kγ+ is 7.4 ± 0.6 °C. For the same compound, the IC50 in the experiment with PI5P4Kα is over 100 µM.
